Results from patent publication US20230049917A1, “Pharmaceutical Composition of CASR Modulators and Methods and Uses Thereof” (Lupin Limited, priority 2019, published 2023).

Experiments:
[1] = Phase 2 study: safety assessments (adverse events); type: in vivo, human; settings: for patients who discontinued the study due to adverse drug reactions: Main Study
Procedure: For safety assessments, safety was assessed through the summary of adverse events (AE), physical examinations and electrocardiogram (ECG) measurements, vital signs (e.g., blood pressure, pulse rate, respiratory rate and body temperature), body weight and laboratory data (e.g., haemtaology, biochemistry and urinalysis). All AEs (both serious and non-serious) were derived from spontaneous, unsolicited reports of patients, by observation and by routine open questions. The AE reporting extended from date of informed consent until completion of the final visit. Any ongoing AE at EOS visit was followed until the outcome was evident and resolved, clinically stabilized or a plausible explanation was found. Pre-existing diseases including deranged laboratory values (before participating in the study) were not considered AEs, unless the disease worsened during the study period. Signs and symptoms clearly associated with the disease under study (including symptoms of disease progression) were reported as AEs if they were newly emergent, or were determined as severe or worsening, or if deterioration of disease-related signs and symptoms to be caused directly by the study drug. Physical examination, vital signs (measured in a sitting position after resting for at least 3 minutes), ECG (recorded by qualified personnel after the patient had been resting in the supine position for at least 3 minutes) and clinical laboratory examinations were done as part of safety assessments. Abnormal laboratory values/ECGs/vital signs/physical examination were reported as AEs only if the abnormality was clinically relevant or significant or believed that the abnormality must be reported as an AE. Any dose (and associated symptoms) given to the patient that exceeded the dose prescribed to the patient, at a minimum, was recorded as a non-serious AE in the patient file and CRF/electronic CRF. Any case of overdose leading to an AE or SAE had to be reported to medical monitor according to reporting requirements. In case of an accidental overdose, the patient had to be monitored by for any adverse clinical events, as deemed necessary.

[2] = First-in-human Phase 1 single- and multiple-dose study; type: in vivo; settings: healthy subjects
[3] = patients not on dialysis, 5 mg BID (N = 16)
[4] = patients not on dialysis, 10 mg QD (N = 37)
[5] = patients not on dialysis, Total in Compound 3 Group (N = 71)
[6] = patients on dialysis, 10 mg QD (N = 34)
[7] = patients on dialysis, 20 mg BID (N = 19)
[8] = patients on dialysis, 25 mg QD (N = 35)
[9] = patients on dialysis, Total in Compound 3 Group (N = 88)

In the case of `Cc1ccc([C@@H]2C[C@H](CN[C@H](C)c3cccc4ccccc34)Oc3ccccc32)cc1C(=O)O.Cl` [Compound 3, 2-methyl-5-((2R,4S)-2-((((R)-1-(naphthalen-1-yl)ethyl)amino)methyl)chroman-4-yl)benzoic acid hydrochloride], the “patients with hypocalcaemia considered by the investigator to be related to the study drug” value ([1]; 1 patient each in 10 mg QD, 25 mg QD and 20 mg BID arms) is reported as 3 patients, the symptomatic hypocalcemic effect ([1]; CKD patients, dose range 5 mg to 50 mg) is reported as “no symptomatic hypocalcemic effect” and the “patients who discontinued the study due to adverse drug reactions” value ([1]; not on dialysis group) is reported as “None”. For the same molecule, the “patients who discontinued the study due to adverse drug reactions” value ([1]; on dialysis group) was “None”, the “adverse events of hyperphosphatemia” value ([1]; Phase 2 study, all patients) was “no adverse events of hyperphosphatemia” and the “patients experiencing adverse events of hypocalcaemia or hyperphosphatemia” value ([1]; patients not on dialysis) was “none”. For the same molecule, the “Adverse event incidence: Diarrhea” value [1, 3] was 0%, the “Adverse event incidence: Nausea” value [1, 3] was 0% and the “Adverse event incidence: Vomiting” value [1, 3] was 0%. The “Adverse event incidence: Diarrhea” value [1, 4] was 2.7%, the “Adverse event incidence: Nausea” value [1, 4] was 0% and the “Adverse event incidence: Vomiting” value [1, 4] was 0%. For the same molecule, the “Adverse event incidence: Diarrhea” value [1, 5] was 2.7%, the “Adverse event incidence: Nausea” value [1, 5] was 0% and the “Adverse event incidence: Vomiting” value [1, 5] was 0%. The “Adverse event incidence: Diarrhea” value [1, 6] was 0%, the “Adverse event incidence: Nausea” value [1, 6] was 0% and the “Adverse event incidence: Vomiting” value [1, 6] was 0%. For the same molecule, the “Adverse event incidence: Diarrhea” value [1, 7] was 0%, the “Adverse event incidence: Nausea” value [1, 7] was 5.3% and the “Adverse event incidence: Vomiting” value [1, 7] was 0%. The “Adverse event incidence: Diarrhea” value [1, 8] was 0%, the “Adverse event incidence: Nausea” value [1, 8] was 0% and the “Adverse event incidence: Vomiting” value [1, 8] was 0%. The “Adverse event incidence: Diarrhea” value [1, 9] was 0%, the “Adverse event incidence: Nausea” value [1, 9] was 5.3% and the “Adverse event incidence: Vomiting” value [1, 9] was 0%. For the same molecule, the safety and tolerability [2] was “safe and well tolerated”.
